SMILES strings stand for the structures.

These results are taken from patent publication US6855549B1, “Methods and compositions for increasing the infectivity of gene transfer vectors” (The University of Iowa Research Foundation, priority 1998, dated 2005).

In the assay the test system is differentiated human airway epithelia. The assay can be described thus: Confocal (latex beads) and transmission electron microscopy of epithelial junctions after EGTA. The following applies: 1 hr. Type of assay: cell-based. As for the experimental part: Ten micromoles of CMFDA (5-chloromethylfluorescein diacetate; Molecular Probes, Eugene, Oreg.) were added to the basal medium overnight to label cells (Knecht and Shelden, 1995; Stewart and Deacon, 1995). 100 nm latex beads (1×10^9 particles, Sigma, St. Louis, Mo.) were mixed with 12 mM hypotonic EGTA solution at a 1:1 ratio. The suspension was applied to the apical surface of KGF-stimulated epithelia for 1 hr. The epithelia were then washed with PBS 4-5 times for 20 min and then fixed in 4% paraformaldehyde/PBS for 20 min. The cell filter membranes were removed, mounted on slides, and examined under a confocal microscope (MRC 1024, Bio-Rad).
Transmission electron microscopy was used to study cell morphology following treatment with a 6 mM EGTA in hypotonic buffer for 1 hr. Differentiated human airway epithelia were fixed in 2.5% glutaraldehyde (0.1 M sodium cacodylate buffer, pH 7.4) overnight at 4° C., and then post-fixed with 1% osmium tetroxide for 1 hr. Following serial alcohol dehydration, samples were embedded in Eponate 12 (Ted Pella, Inc., Redding, Calif.). Sectioning and post-staining were performed using routine methods (see “Electron Microscopy: Principles and Techniques for Biologists,” Jones and Bartlett Publishers, Sudbury, Mass., 1998). Samples were examined under a Hitachi H-7000 transmission electron microscope. […]

For the compound `O=C(O)CN(CCOCCOCCN(CC(=O)O)CC(=O)O)CC(=O)O` [EGTA], for the setting “6 mM EGTA in hypotonic buffer”, the “width of intercellular gap (TEM)” value was approximately 500 nm. Further, where the note is “hypotonic 6 mM EGTA, apical”, the “intercellular spaces and deposition of 100 nm beads” value is “caused a widening of the intercellular spaces and facilitated deposition of beads in the paracellular space”.
